Assay results taken from patent publication US6160008A, “Pharmaceutical compositions comprising S-alkylisothiouronium derivatives” (priority 1996, dated 2000).
Entries after “also recorded” stand apart in the source; their conditions may differ. Read-outs that look alike come from different tables or passages of the source.

What was measured:
[1] = test system: acid-base balance and gas composition of arterial blood; assay: Acid-base balance and gas composition of arterial blood in hemorrhagic shock (Table 6); format: in vivo, cats
Description: The influence of S-ethylisothiouronium diethylphosphate on the major indices of the blood acid-base state (AAS) and gas content in hemorrhagic shock was studied at a dose of 5 mg/kg. The cats were narcotized intraperitoneally with pentobarbital sodium (nembutal) at a dose of 40 mg/kg. The blood loss was caused by blood-letting from the common carotid artery in an amount of 3.2% of the animal body mass, which approximately corresponds to 45-47% of the blood circulation volume. The blood-letting was carried out during 3-5 minutes. Tension characteristics of oxygen and carbon dioxide in arterial (PaO2, PaCO2) and mixed venous (PvO2, PvCO2) blood, pHa and pH were studied by Astrup micromethod. The hemoglobin content (Hb) was determined by the cianohemoglobin method. Bicarbonate ion content /HCO3 was calculated with the help of the Severinghause ruler. Calculations were carried out on the CM-1403-02 computer in the Forhtran language program. Indices of the acid-base balance and blood gas content were studied in the initial state, on the 30th minute after acute bleeding as well as on 2nd, 10th, 30th, and 60th minute after the medicine injection. The substance was injected singly intravenously on the 30th minute after the blood-letting.
In the test group (n=6), S-ethylisothiouronium diethylphosphate was injected at a dose of 5 mg/kg.

[2] = Biochemical tests of dog blood serum and general toxicity, 3-day experiment (Tables 10-14); format: in vivo; conditions: 10 mg/kg i.v. daily, 3 days, dogs
Description: In an experiment on dogs, the functional condition of the organism was estimated by biochemical tests, after the intravenous injection of a 10% solution S-ethylisothiouronium diethylphosphate, at a dose of 10 mg/kg daily. This experiment was conducted at the same time of the day. Blood was examined 1 hour after the administration of the preparation during 3 successive days and on the 4th, the 5th and on the 10th day after injection. The concentrations of total protein, of albumin, globulins, total cholesterol, and glucose in dog blood serum were determined by conventional methods. The total protein content was determined by biureth method, total cholesterol--by like method, glucose--by glucose-oxidase method.
The general toxicity and biochemical parameters were determined in a 3-day experiment, where a 10% solution of the preparation was daily intravenously injectioned at a dose of 10 mg/kg.

[3] = test system: rats exposed to an oxygen pressure of 6 atm; assay: Toxic effect of oxygen at a pressure of 6 atm in rats (Tables 16-18); format: in vivo, white rats; conditions: 20 mg/kg i.p.
Description: Experiments on the toxic effect of oxygen at a pressure of 6 atm were carried out similarly in a hyperbaric chamber C-203 (chamber volume 0.45 m^3), on white rats, during 50 minutes. The preparation was injected intraperitoneally at a dose of 20 mg/kg. In the controls, 2 ml/kg of water for injections was injected intraperitoneally. After decompression the rats were decapitated and the glucose content, urea content, ureal nitrogen and total hemoglobine content were determined in the blood serum, as well as the index <<lung mass in gr./body mass in gr. X 100>> (i.e. lung coefficient).

[4] = test system: rats exposed to an oxygen pressure of 3 atm; assay: Survival under oxygen pressure of 3 atm, rats (Table 15); format: in vivo, Wistar rat; conditions: 5 hours
Description: Animals were exposed to oxygen under increased pressure in a hyperbaric chamber <<Mana-2≤≤ for treatment of infants above 1 year, which was adjusted for the experiments on animals. The hyperbaric chamber design permitted to create excessive pressure up to 3 atm and to observe animal behavior from outside.
The experiments were performed on males of F1 (CBAx57B1) mice line and on males of Wistar rat line. Animals were placed in the hyperbaric chamber in plastic boxes and the atmospheric air was replaced by oxygen. The period of compression-decompression was 10 minutes. The exposure of the animals to an oxygen pressure of 3 atm during a period of 2 hours caused only some increase in their motion activity. Further staying of rats and mice in those conditions led to a decrease in the motion activity, to asphyxia with short periods of excitement and cramps. The death of some animals was registered after 2.5-3 hours, 50% after 4 hours, and 75% of mice and 100% of rats were dead after 5 hours.
When the influence of Difetur and Etyron was studied, the animals were exposed to an oxygen pressure of 3 atm during 5 hours if not otherwise specified. Preparations were injected 5-10 minutes before the session.

[5] = in vivo, cited from earlier work
[6] = Pathomorphological examination of internal organs; format: in vivo, mice, dogs; conditions: mean lethal and sublethal doses
Text: The disturbance to blood circulation has a reversible character and as a rule, it normalized within 7-10 days after the preparation had no longer any effect.

[7] = test system: acute arterial hypotension, caused by the hexamethonium administration; assay: Acute arterial hypotension caused by hexamethonium (Table 5); format: in vivo, cats; conditions: for AP / HF: 5 mg/kg i.v. after hexamethonium 10 mg/kg
Description: The influence of S-ethylisothiouronium diethylphosphate on the background of arterial hypotension caused by a known ganglion blocker-hexamethonium has been studied in cats. Hexamethonium was injected intra- venously at a dose of 10 mg/kg. Vagus and schiatic nerve stimulation was carried out by electrical pulsator with the above-threshold rectangular pulse current having a duration of 1 msec, irritation time of 10 sec, and frequency of 20 pulses/sec (peripheral section of the vagus nerve), and frequency of 300 pulses/sec (central end of the schiatic nerve).

[8] = 5 mg/kg i.v., 10 min after injection
[9] = 5 mg/kg i.v., 30 min after injection
[10] = 5 mg/kg i.v., 60 min after injection

SMILES: CCSC(=N)N [S-ethylisothiouronium diethylphosphate]
- Bicarbonate ion content increase, arterial blood ([1]; 5 mg/kg i.v., 10th minute): 5%
- Bicarbonate ion content increase, arterial blood ([1]; 5 mg/kg i.v., 30th minute): 16%
- Bicarbonate ion content (HCO3 a) [1, 8]: 15.583 ± 1.333 mmol/L
- Buffer bases (Bba) [1, 8]: 34.150 ± 1.364 mmol/L
- Buffer bases shift (Bea) [1, 8]: -7.866 ± 1.095 mmol/L
- Carbonic acid gas tension (PaCO2) [1, 8]: 28.616 ± 2.858 mm Hg
- Oxygen tension (PaO2) [1, 8]: 94.483 ± 6.012
- pHa [1, 8]: 7.252±0.018
- Decrease of partial pressure of carbon dioxide (arterial and venous blood) ([1]; 5 mg/kg i.v., 10 minute, vs 30th minute after blood letting): 9%
- Bicarbonate ion content (HCO3 a) [1, 9]: 17.083 ± 1.065 mmol/L
- Buffer bases (Bba) [1, 9]: 34.966 ± 3.534 mmol/L
- Buffer bases shift (Bea) [1, 9]: -8.016 ± 1.436 mmol/L
- Carbonic acid gas tension (PaCO2) [1, 9]: 31.083 ± 1.933 mm Hg
- Oxygen tension (PaO2) [1, 9]: 95.466 ± 7.144
- pHa [1, 9]: 7.310±0.064
- Bicarbonate ion content (HCO3 a) [1, 10]: 15.900 ± 3.033 mmol/L
- Buffer bases (Bba) [1, 10]: 32.733 ± 5.616 mmol/L
- Buffer bases shift (Bea) [1, 10]: -9.450 ± 3.903 mmol/L
- Carbonic acid gas tension (PaCO2) [1, 10]: 35.217 ± 7.339 mm Hg
- Oxygen tension (PaO2) [1, 10]: 85.550 ± 6.575
- pHa [1, 10]: 7.208 ± 0.036
- Effect on acid-base balance and blood gases in words ([1]; arterial blood, hemorrhagic shock): does not influence negatively the acid-base balance; also recorded: corrects the metabolic acidosis caused by the loss of blood; also recorded: it had the tendency to increase in the arterial blood, and to decrease in the venous blood
- General toxicity and serum biochemistry in words [2]: wavy fluctuations with the tendency to decrease on the 4th and 5th day; also recorded: The level of albumins and globulins also changed in a wavy manner; also recorded: The level of total cholesterol and glucose had slight fluctuations which did not overstep the fluctuation limits of healthy dogs; also recorded: no evidence was found for intoxication or any significant deviation between the parameters studied and the initial data; also recorded: individual sensitivity of the animals to intravenous injection of the preparation was not found
- Asphyxia, animal number ([3]; 36 rats): 0
- Generalized cramps, % of animals ([3]; 36 rats): 2.8%
- Generalized cramps, animal number ([3]; 36 rats): 1
- Lateral position, animal number ([3]; 36 rats): 0
- Number of perished rats ([3]; 36 rats): 0
- Lung coefficient (lung mass in gr./body mass in gr. X 100) ([3]; Average ± SD, 16 animals): 0.474 ± 0.024
- Glucose (blood serum) ([3]; M ± m, n = 16): 5.765 ± 0.214
- Hemoglobin (blood serum) ([3]; M ± m, n = 16): 2.028 ± 0.048
- Urea (blood serum) ([3]; M ± m, n = 16): 4.643 ± 0.212
- Urea Nitrogen (blood serum) ([3]; M ± m, n = 16): 2.163 ± 0.099
- Protection at 6 atm in words ([3]; rats, listed as Difetur): improve blood serum biochemical indices; also recorded: efficiently protect lungs from the toxic effect of increased oxygen pressure; also recorded: did not practically effect the hemoglobin content but considerably improved other indices; also recorded: significantly reduced the <<lung mass in gr./body mass>> index; also recorded: completely prevented animals' death and reduced other visible consequences of the oxygen poisoning
- Number of survived animals ([4]; 5 mg/kg): 60%
- Number of survived animals ([4]; 10 mg/kg): 50%
- Number of survived animals ([4]; 20 mg/kg): 70%
- Radioprotective effect in words [5]: radioprotective effect
- Radioprotective effect in words ([5]; listed as Difetur): distinct radioprotective effect
- Pathomorphological findings [6]: moderately pronounced signs of hemodynamic disturbance; also recorded: No prounced inflammatory, distrophic or necrobiotic changes of internal organs were observed; also recorded: In some cases, signs of compensatory-adaptation reactions of liver
- Time to normalization of blood circulation disturbance [6]: 7 to 10 days
- AP ([7]; 2 min): 152.0 ± 4.6 mm Hg
- HF ([7]; 2 min): 120.0 ± 12.0 per min.
- AP ([7]; 15 min): 147.0 ± 7.8 mm Hg
- HF ([7]; 15 min): 105.6 ± 11.6 per min.
- AP ([7]; 30 min): 146.8 ± 4.8 mm Hg
- HF ([7]; 30 min): 109.2 ± 11.1 per min.
- AP ([7]; 60 min): 143.0 ± 7.2 mm Hg
- HF ([7]; 60 min): 108.0 ± 15.8 per min.
- AP increase ([7]; 5 mg/kg i.v. after hexamethonium, 2nd minute): 61 mm Hg
- Effect under ganglion blockade in words ([7]; after hexamethonium): Respiratory rate did not change; also recorded: HR changed to the direction of bradycardia, however, those changes were not statistically significant; also recorded: ganglion blocking properties are completely retained; also recorded: quickly restores the AP level after the ganglion blocker caused hypotension and maintains it for a long time
